Data as given in patent publication US6465451B1, “Hypolipidemic benzothiazepine compounds” (SmithKline Beecham Corporation, priority 1998, dated 2002).

What was measured:
[1] = target: T1, ileal bile acid active uptake system (Rattus norvegicus, UniProt Q62633); experiment: In vivo inhibition of bile acid reabsorption (75SeHCAT, rat); conditions: male Spraque-Dawley rats, oral gavage twice daily for two days, fecal 75SeHCAT over 24 hours, n=12 total
T1 construct: from tissue; host or cells: whole animal (rat ileum, in vivo)
T1 sequence (Q62633 1-348): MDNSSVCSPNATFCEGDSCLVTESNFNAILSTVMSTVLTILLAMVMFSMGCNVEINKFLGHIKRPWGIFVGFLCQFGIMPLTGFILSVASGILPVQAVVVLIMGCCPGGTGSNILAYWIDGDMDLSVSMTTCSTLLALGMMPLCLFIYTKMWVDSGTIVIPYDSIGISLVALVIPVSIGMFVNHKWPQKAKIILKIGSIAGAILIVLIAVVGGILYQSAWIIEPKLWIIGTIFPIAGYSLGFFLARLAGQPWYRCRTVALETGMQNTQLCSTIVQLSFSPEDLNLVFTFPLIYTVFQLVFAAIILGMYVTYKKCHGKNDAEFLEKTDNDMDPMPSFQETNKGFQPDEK
Protocol: (I) In vivo Inhibition of Bile Acid Reabsorption
Male Spraque-Dawley rats (CD, Charles River) weighing 220-260 gm were housed in individual cages and fed normal chow. The rats were dosed by oral gavage (1 ml/100 gm body weight) with test compounds as a suspension in 0.5% methylcellulose at 9:00 a.m. and 3:30 p.m. for two days. The control group received 0.5% methylcellose. Two hours after the morning dose on day two, the rats were given a trace amount (1.3 nmoles) of 23,25−^75Se-homocholic acid taurine (^75SeHCAT) in 1.0 ml saline orally. ^75SeHCAT, a synthetic gamma emitting bile acid analog which is absorbed by the ileal bile acid active uptake system similar to taurocholic acid, has been used clinically as a measure of ileal bile acid absorption. Feces were collected over the 24 hours following ^75SeHCAT administration. Fecal content of ^75SeHCAT was determined using a Packard Auto-Gamma 5000 Series gamma-counter. The % inhibition of bile acid reabsorption is calculated as follows: [formula]
The percent of inhibition of bile acid reabsorption in the rat using ^75SeHCAT was used to determine the ED30 (the dose required to give 30% inhibition of bile acid uptake). […]

[2] = system: male Spraque-Dawley rats; experiment: Percent cholesterol lowering in rats fed a cholesterol-cholic acid enriched diet; type: in vivo, rat; conditions: gavage b.i.d. for 3 days and once on day four, hypercholesterolemic rats, serum lipids four hours after last dose
Protocol: (II) Percent Cholesterol Lowering in Rats
Hypercholesterolemia was induced in male Spraque-Dawley rats (CD, Charles River weighing 200-300 g) by administration of a diet enriched in cholesterol and cholic acid. The diet was prepared from Wayne Laboratory Lab Blocks ground into meal and mechanically mixed with powdered cholesterol and cholic acid to a final concentration (by weight) of 1% and 0.5%, respectively. Prior to administration of the diet, blood was collected under halothane anesthesia by cardiac puncture to determine baseline lipid levels. Serum was obtained for analysis of total cholesterol (TC), high density lipoprotein cholesterol (HDL-C), and dextran-precipitable lipoprotein-cholesterol (VLDL+LDL). The rats were divided into groups so that each group had similar baseline serum lipid levels. Five days following the initial sampling for serum lipids the rats were fed ab lib the cholesterol-cholic acid enriched diet and compound administration was begun. The compound was administered by gavage as a suspension in 0.5% methylcellulose (1 ml/100 g body weight) b.i.d. at 9:00 a.m. and 3:00 p.m. for 3 days and at 9:00 a.m. on day four. Control animals received 0.5% methylcellulose only. The rats were bleed four hours after the last dose for the determination of serum lipids. All blood collections were done after a 4-h fast. Serum TC concentrations were determined enzymatically using reagents obtained from Seragen Diagnostics (2). Serum HDL-C was determined after selective precipitation of VLDL and LDL with dextran sulfate and magnesium sulfate, with reagents from Seragen (3). HDL-C was determined in the supernatant. VLDL+LDL cholesterol was determined as the difference between total and HDL-C. The following results were obtained for Example 1 and Example A, as defined above.

Structure (SMILES) | ED30 (the dose required to give 30% inhibition of bile acid uptake) [1] | melting point | Percent cholesterol lowering ([2]; dose 0.03 mg/kg) | Percent cholesterol lowering ([2]; dose 0.1 mg/kg) | Percent cholesterol lowering ([2]; dose 0.3 mg/kg)
CCCC[C@@]1(CC)CN(c2ccccc2)c2cc(Cl)c(O)cc2S(=O)(=O)C1 [Example 1, (3S)-2,3,4,5-Tetrahydro-3-ethyl-3-butyl-5-phenyl-7-chloro-8-hydroxy-1,5-benzothiazepine-1,1-dioxide] | 0.048 mg/kg | 179.6 to 180.2 °C | 48% | 56% | 81%
CCCCC1(CC)CN(c2ccccc2)c2cc(Br)c(O)cc2S(=O)(=O)C1 (stereo not drawn) [Example A, 2,3,4,5-tetrahydro-3-ethyl-3-butyl-5-phenyl-7-bromo-8-hydroxy-1,5-benzothiazepine-1,1-dioxide, reference compound] | 0.17 mg/kg | – | 14% | 17% | 53%
